Experimental data reported in ChEMBL document CHEMBL1137135 (Bioorg Med Chem Lett, 2004).

Columns and labels:
[1] = In vitro inhibitory activity against Factor Xa
Rattus norvegicus = species: Rattus norvegicus; assay: In vitro anticoagulant activity of compound was determined in rat; assay type: functional
[2] = Binding affinity of compound towards Factor Xa
[3] = Bioavailability in rat; assay type: ADME, organism-based; conditions: in vivo
[4] = Half-life of compound was determined in rat; assay type: ADME; conditions: in vivo
[5] = Plasma clearance of compound was determined in rat; assay type: ADME, organism-based
[6] = Vz of compound was determined in rat; assay type: ADME, organism-based; conditions: in vivo, read-out: Vz

## COCCN(C)Cc1ccccc1-c1ccc(C(=O)N[C@H](CC(=O)Nc2ccc(Br)cn2)C(=O)N2CCCCC2)cc1
[1]
  IC50: 0.0013 µM

## NS(=O)(=O)c1ccccc1-c1ccc(C(=O)NCCNC(=O)c2cc3cc(Cl)ccc3[nH]2)cc1
[1]
  IC50: 0.76 µM

## NS(=O)(=O)c1ccccc1-c1ccc(C(=O)NCCNS(=O)(=O)c2ccc3cc(Br)ccc3c2)cc1
[1]
  IC50: 9.3 µM

## CN(C)C(=N)c1ccc(C(=O)N[C@H](CC(=O)Nc2ccc(Br)cn2)C(=O)N2CCCCC2)cc1
[1]
  IC50: 0.0046 µM

## NS(=O)(=O)c1ccccc1-c1ccc(C(=O)NCCNS(=O)(=O)c2cc3cc(Cl)ccc3[nH]2)cc1
[1]
  IC50: 1.9 µM

## NS(=O)(=O)c1ccccc1-c1ccc(C(=O)NCCC(=O)Nc2ccc(Cl)cc2)cc1
[1]
  IC50: 0.017 µM

## NS(=O)(=O)c1ccccc1-c1ccc(C(=O)NCCNC(=O)c2cccc(Cl)c2)cc1
[1]
  IC50: 1.5 µM

## NS(=O)(=O)c1ccccc1-c1ccc(C(=O)NCCNC(=O)c2ccc(Br)cc2)cc1
[1]
  IC50: 0.96 µM

## NS(=O)(=O)c1ccccc1-c1ccc(C(=O)NC(CC(=O)Nc2ccc(Br)cn2)C(=O)O)cc1 (stereo not drawn)
Rattus norvegicus
  2X PT: 74 µM
[1]
  IC50: 0.00437 µM
[2]
  Ki: 0.00172 µM
[3]
  bioavailability: 4%
[4]
  half-life: 1 h
[5]
  clearance: 0.402 L/h/kg
[6]
  Vd: 0.6 L/kg

## NS(=O)(=O)c1ccccc1-c1ccc(C(=O)NCCNC(=O)c2ccccc2)cc1
[1]
  IC50: > 10 µM

## COC(=O)C(CC(=O)Nc1ccc(Br)cn1)NC(=O)c1ccc(-c2ccccc2S(N)(=O)=O)cc1 (stereo not drawn)
[1]
  IC50: 0.0247 µM

## CCC(=O)NC(CC(=O)Nc1ccc(Br)cn1)C(=O)Nc1ccc(-c2ccccc2S(N)(=O)=O)cc1 (stereo not drawn)
[1]
  IC50: 0.0365 µM

## NS(=O)(=O)c1ccccc1-c1ccc(C(=O)NC(CC(=O)Nc2ccc(Br)cn2)C(=O)N2CCCC2)cc1 (stereo not drawn)
[1]
  IC50: 0.0145 µM

## CNC(=O)C(CC(=O)Nc1ccc(Br)cn1)NC(=O)c1ccc(-c2ccccc2S(N)(=O)=O)cc1 (stereo not drawn)
[1]
  IC50: 0.0174 µM

## NS(=O)(=O)c1ccccc1-c1ccc(NC(=O)C(CC(=O)Nc2ccc(Br)cn2)NC(=O)Nc2ccccc2)cc1 (stereo not drawn)
[1]
  IC50: 0.037 µM

## NC(CNC(=O)c1ccc(-c2ccccc2S(N)(=O)=O)cc1)C(=O)Nc1ccc(Br)cn1 (stereo not drawn)
[1]
  IC50: 1.65 µM

## CN1CCN=C1c1ccc(C(=O)N[C@H](CC(=O)Nc2ccc(Cl)cn2)C(=O)N2CCCCC2)cc1
[1]
  IC50: 0.026 µM

## COCCN(C)Cc1ccccc1-c1ccc(C(=O)N[C@@H](CC(=O)Nc2ccc(Cl)cn2)C(=O)N2CCCCC2)cc1
[1]
  IC50: 0.0093 µM

## NS(=O)(=O)c1ccccc1-c1ccc(NC(=O)C(CC(=O)Nc2ccc(Br)cn2)NC(=O)c2ccncc2)cc1 (stereo not drawn)
[1]
  IC50: 0.0438 µM

## NS(=O)(=O)c1ccccc1-c1ccc(C(=O)NC(CC(=O)Nc2ccc(Br)cn2)C(=O)N2CCOCC2)cc1 (stereo not drawn)
[1]
  IC50: 0.0229 µM

## NS(=O)(=O)c1ccccc1-c1ccc(NC(=O)C(CC(=O)Nc2ccc(Br)cn2)NC(=O)C(F)(F)F)cc1 (stereo not drawn)
[1]
  IC50: 0.2 µM

## CCOC(=O)CNC(=O)C(CC(=O)Nc1ccc(Br)cn1)NC(=O)c1ccc(-c2ccccc2S(N)(=O)=O)cc1 (stereo not drawn)
[1]
  IC50: 0.0033 µM

## CN(C)C(=N)c1ccc(C(=O)N[C@H](CC(=O)Nc2ccc(Cl)cn2)C(=O)N2CCCCC2)cc1
[1]
  IC50: 0.012 µM

## NS(=O)(=O)c1ccccc1-c1ccc(NC(=O)C(CC(=O)Nc2ccc(Br)cn2)NC(=O)C2CCCNC2)cc1 (stereo not drawn)
[1]
  IC50: 0.442 µM

## CN(C)Cc1nccn1-c1ccc(C(=O)N[C@@H](CC(=O)Nc2ccc(Cl)cn2)C(=O)N2CCCCC2)cc1
[1]
  IC50: 0.0092 µM

## NS(=O)(=O)c1ccccc1-c1ccc(C(=O)NC(CC(=O)Nc2ccc(Br)cn2)C(=O)Nc2ccccc2)cc1 (stereo not drawn)
[1]
  IC50: 0.0265 µM

## CN1CCN=C1c1ccc(C(=O)N[C@@H](CC(=O)Nc2ccc(Cl)cn2)C(=O)N2CCCCC2)cc1
[1]
  IC50: 0.028 µM

## NS(=O)(=O)c1ccccc1-c1ccc(C(=O)NC(CC(=O)Nc2ccc(Br)cn2)C(=O)N2CCNCC2)cc1 (stereo not drawn)
[1]
  IC50: 0.0909 µM

## NS(=O)(=O)c1ccccc1-c1ccc(NC(=O)CCC(=O)Nc2ccc(Br)cn2)cc1
[1]
  IC50: 0.02 µM

## NS(=O)(=O)c1ccccc1-c1ccc(NC(=O)CCNC(=O)c2ccc(Cl)s2)cc1
[1]
  IC50: 0.13 µM

## CC(=O)NC(CC(=O)Nc1ccc(Br)cn1)C(=O)Nc1ccc(-c2ccccc2S(N)(=O)=O)cc1 (stereo not drawn)
[1]
  IC50: 0.182 µM

## NS(=O)(=O)c1ccccc1-c1ccc(NC(=O)CCC(=O)Nc2ccc(Cl)cc2)cc1
[1]
  IC50: 0.012 µM

## O=C(C[C@@H](NC(=O)c1ccc(-c2ccccc2CN2CCCC2)cc1)C(=O)N1CCCCC1)Nc1ccc(Br)cn1
[1]
  IC50: 0.001 µM

## CN1CCN=C1c1ccc(C(=O)N[C@H](CC(=O)Nc2ccc(Br)cn2)C(=O)N2CCCCC2)cc1
[1]
  IC50: 0.0082 µM

## CN1CCN(C(=O)C(CC(=O)Nc2ccc(Br)cn2)NC(=O)c2ccc(-c3ccccc3S(N)(=O)=O)cc2)CC1 (stereo not drawn)
[1]
  IC50: 0.0265 µM

## NCC(=O)NC(CC(=O)Nc1ccc(Br)cn1)C(=O)Nc1ccc(-c2ccccc2S(N)(=O)=O)cc1 (stereo not drawn)
[1]
  IC50: 0.15 µM

## NS(=O)(=O)c1ccccc1-c1ccc(C(=O)NCCNS(=O)(=O)c2ccc(Cl)cc2)cc1
[1]
  IC50: > 10 µM

## O=C(C[C@H](NC(=O)c1ccc(-c2ccccc2CN2CCCC2)cc1)C(=O)N1CCCCC1)Nc1ccc(Cl)cn1
[1]
  IC50: 0.0027 µM

## O=C(C[C@@H](NC(=O)c1ccc(-c2ccccc2CN2CCCC2)cc1)C(=O)N1CCCCC1)Nc1ccc(Cl)cn1
[1]
  IC50: 0.002 µM

## NC(CC(=O)Nc1ccc(Br)cn1)C(=O)Nc1ccc(-c2ccccc2S(N)(=O)=O)cc1 (stereo not drawn)
[1]
  IC50: 0.145 µM

## CN(C)Cc1nccn1-c1ccc(C(=O)N[C@@H](CC(=O)Nc2ccc(Br)cn2)C(=O)N2CCCCC2)cc1
[1]
  IC50: 0.33 µM

## CS(=O)(=O)NC(CNC(=O)c1ccc(-c2ccccc2S(N)(=O)=O)cc1)C(=O)Nc1ccc(Br)cn1 (stereo not drawn)
[1]
  IC50: 1.25 µM

## NS(=O)(=O)c1ccccc1-c1ccc(NC(=O)C(CC(=O)Nc2ccc(Br)cn2)NC(=O)C2CCNCC2)cc1 (stereo not drawn)
[1]
  IC50: 0.194 µM

## NS(=O)(=O)c1ccccc1-c1ccc(C(=O)NC(CC(=O)Nc2ccc(Br)cn2)C(=O)NC2CCCC2)cc1 (stereo not drawn)
[1]
  IC50: 0.0159 µM

## NS(=O)(=O)c1ccccc1-c1ccc(C(=O)NCCC(=O)Nc2ccc(Br)cc2)cc1
[1]
  IC50: 0.029 µM

## CN(C)Cc1nccn1-c1ccc(C(=O)N[C@H](CC(=O)Nc2ccc(Br)cn2)C(=O)N2CCCCC2)cc1
[1]
  IC50: 0.0031 µM

## O=C(C[C@H](NC(=O)c1ccc(-c2ccccc2CN2CCOCC2)cc1)C(=O)N1CCCCC1)Nc1ccc(Cl)cn1
[1]
  IC50: 0.0036 µM

## O=C(C[C@H](NC(=O)c1ccc(-c2ccccc2CN2CCOCC2)cc1)C(=O)N1CCCCC1)Nc1ccc(Br)cn1
[1]
  IC50: 0.29 µM

## NS(=O)(=O)c1ccccc1-c1ccc(C(=O)NC(CC(=O)Nc2ccc(Br)cn2)C(=O)N2CCCCC2)cc1 (stereo not drawn)
Rattus norvegicus
  2X PT: 7 µM
  TG 2X lag: 4.6 µM
[1]
  IC50: 0.0076 µM
[2]
  Ki: 0.00136 µM
[3]
  bioavailability: 2.7%
[4]
  half-life: 1.35 h
[5]
  clearance: 3.04 L/h/kg
[6]
  Vd: 5.9 L/kg

## NS(=O)(=O)c1ccccc1-c1ccc(C(=O)NC(CC(=O)Nc2ccc(Br)cn2)C(=O)N2CCS(=O)(=O)CC2)cc1 (stereo not drawn)
[1]
  IC50: 0.0401 µM

## O=C(C[C@@H](NC(=O)c1ccc(-c2ccccc2CN2CCOCC2)cc1)C(=O)N1CCCCC1)Nc1ccc(Cl)cn1
[1]
  IC50: 0.0018 µM

## CC(=O)NC(CNC(=O)c1ccc(-c2ccccc2S(N)(=O)=O)cc1)C(=O)Nc1ccc(Br)cn1 (stereo not drawn)
[1]
  IC50: 0.805 µM

## CNCCNC(=O)C(CC(=O)Nc1ccc(Br)cn1)NC(=O)c1ccc(-c2ccccc2S(N)(=O)=O)cc1 (stereo not drawn)
[1]
  IC50: 0.0434 µM

## NS(=O)(=O)c1ccccc1-c1ccc(NC(=O)CCC(=O)Nc2ccc(Br)cc2)cc1
[1]
  IC50: 0.065 µM

## NS(=O)(=O)c1ccccc1-c1ccc(NC(=O)CCC(=O)Nc2ccc(Cl)cn2)cc1
[1]
  IC50: 0.037 µM

## NS(=O)(=O)c1ccccc1-c1ccc(C(=O)NC(CC(=O)Nc2ccc(Br)cn2)C(=O)N2CCCCCC2)cc1 (stereo not drawn)
[1]
  IC50: 0.00498 µM

## CN(C)Cc1ccccc1-c1ccc(C(=O)N[C@@H](CC(=O)Nc2ccc(Cl)cn2)C(=O)N2CCCCC2)cc1
Rattus norvegicus
  2X PT: 3.6 µM
  TG 2X lag: 0.96 µM
[1]
  IC50: 0.0029 µM
[2]
  Ki: 0.001 µM
[3]
  bioavailability: 7.9%
[4]
  half-life: 6.1 h
[5]
  clearance: 7.44 L/h/kg
[6]
  Vd: 59.2 L/kg

## NS(=O)(=O)c1ccccc1-c1ccc(C(=O)NCCNC(=O)c2ccc(Cl)s2)cc1
[1]
  IC50: 0.0057 µM

## CCCCOC(=O)NC(CNC(=O)c1ccc(-c2ccccc2S(N)(=O)=O)cc1)C(=O)Nc1ccc(Br)cn1 (stereo not drawn)
[1]
  IC50: 1.25 µM

## O=C(C[C@@H](NC(=O)c1ccc(-c2ccccc2CN2CCOCC2)cc1)C(=O)N1CCCCC1)Nc1ccc(Br)cn1
[1]
  IC50: 0.0011 µM

## COCCN(C)Cc1ccccc1-c1ccc(C(=O)N[C@H](CC(=O)Nc2ccc(Cl)cn2)C(=O)N2CCCCC2)cc1
[1]
  IC50: 0.0048 µM

## CN(C)CCNC(=O)C(CC(=O)Nc1ccc(Br)cn1)NC(=O)c1ccc(-c2ccccc2S(N)(=O)=O)cc1 (stereo not drawn)
[1]
  IC50: 0.0497 µM

## CN(C)CC(=O)NC(CC(=O)Nc1ccc(Br)cn1)C(=O)Nc1ccc(-c2ccccc2S(N)(=O)=O)cc1 (stereo not drawn)
[1]
  IC50: 0.215 µM

## COCCN(C)Cc1ccccc1-c1ccc(C(=O)N[C@@H](CC(=O)Nc2ccc(Br)cn2)C(=O)N2CCCCC2)cc1
[1]
  IC50: 0.94 µM

## CN(C)CCN(C)C(=O)C(CC(=O)Nc1ccc(Br)cn1)NC(=O)c1ccc(-c2ccccc2S(N)(=O)=O)cc1 (stereo not drawn)
[1]
  IC50: 0.0455 µM

## CN(C)Cc1nccn1-c1ccc(C(=O)N[C@H](CC(=O)Nc2ccc(Cl)cn2)C(=O)N2CCCCC2)cc1
[1]
  IC50: 0.0076 µM

## COc1ccc(C(=O)NCCNC(=O)c2ccc(-c3ccccc3S(N)(=O)=O)cc2)cc1
[1]
  IC50: 2.6 µM

## NS(=O)(=O)c1ccccc1-c1ccc(NC(=O)C(CC(=O)Nc2ccc(Br)cn2)NC(=O)c2cccnc2)cc1 (stereo not drawn)
[1]
  IC50: 0.0472 µM

## NS(=O)(=O)c1ccccc1-c1ccc(C(=O)NCCNS(=O)(=O)c2cc3ccc(Cl)cc3s2)cc1
[1]
  IC50: 1.09 µM

## NS(=O)(=O)c1ccccc1-c1ccc(C(=O)NCC(NC(=O)Nc2ccccc2)C(=O)Nc2ccc(Br)cn2)cc1 (stereo not drawn)
[1]
  IC50: 8.5 µM

## CN(C)Cc1ccccc1-c1ccc(C(=O)N[C@H](CC(=O)Nc2ccc(Br)cn2)C(=O)N2CCCCC2)cc1
Rattus norvegicus
  2X PT: 1.98 µM
  TG 2X lag: 0.42 µM
[1]
  IC50: 0.00065 µM
[2]
  Ki: 0.00014 µM

## O=C(C[C@H](NC(=O)c1ccc(-c2ccccc2CN2CCCC2)cc1)C(=O)N1CCCCC1)Nc1ccc(Br)cn1
[1]
  IC50: 0.23 µM

## CN(C)C(=N)c1ccc(C(=O)N[C@@H](CC(=O)Nc2ccc(Cl)cn2)C(=O)N2CCCCC2)cc1
[1]
  IC50: 0.024 µM

## NS(=O)(=O)c1ccccc1-c1ccc(NC(=O)/C=C/C(=O)Nc2ccc(Cl)cc2)cc1 (stereo in doubt; cis)
[1]
  IC50: 0.067 µM

## NS(=O)(=O)c1ccccc1-c1ccc(NC(=O)/C=C/C(=O)Nc2ccc(Cl)cc2)cc1 (stereo in doubt; trans)
[1]
  IC50: > 10 µM
